Key:
Lmna^+/+ fibroblasts = assay: Cell viability assay (MTT); format: cell-based, mouse; conditions: up to 50 µM, 24 h
Method: (§1) Cpd!" 2 Cpd#$ 9 Cpd!" 2 Cpd#$ 9
(§2) Supporting Figure S3. Cellular cytotoxicity of compounds 2 and 9. Viability of progeroid […]/G609G and wild type Lmna+/+ fibroblasts treated with compounds at 5-50 µM for 24 h. Viability is expressed as the percentage relative to cells treated with vehicle (0.1% DMSO) which are considered 100% viable. Error bars represent the average±SD from three independent experiments carried out in duplicate.
(§3) (also on this page, place not known: !" #$**+,-./-*-01+234 !" #$**+,-./-*-01+234 Cpd2 Cpd2Cpd9 Cpd9) […]
(§4) was saturated at 100 ppm. Relative STD effects were calculated by comparing the intensity of the signals in the STD-NMR spectrum with signal intensities of the reference spectrum (off-resonance). The STD signal with the highest intensity was set to 100%, a nd other STD signals were calculated accordingly. […]
(§5) Cell viability was assessed as previously described.[64] […] Once supernatants were removed, formazan crystals previously formed by viable cells were dissolved in DMSO (100 μL/ well) and absorbance was measured at 570 nm (OD570-630) using an Asys UVM 340 (Biochrom Ltd., Cambridge, UK) microplate reader. Background absorbance from blank wells containing only media with compound or vehicle were subtracted from each test well. […]

[1] = system: Lmna^G609G/G609G fibroblasts; assay: Cell viability assay (MTT); format: cell-based, mouse; conditions: up to 50 µM, 24 h
Method: as §1, §2, §3, §4, §5

CC1(C)Oc2cc3oc(=O)ccc3cc2C[C@@H]1OC(=O)CCCCCNc1cccc2c1C(=O)N(C1CCC(=O)NC1=O)C2=O (some centres unmarked) [compound 2]
cytotoxicity (cell viability) (Lmna^+/+ fibroblasts): did not induce significant cytotoxicity | cytotoxicity (cell viability) [1]: did not induce significant cytotoxicity

Source: PMC13252604, “First Generation Proteolysis Targeting Chimeras (PROTACs) for the Treatment of Progeria” (Advanced Science, 2026)
